# Experimental data reported in ChEMBL document CHEMBL3885861, “Open TG-GATES”.
# Organism: Rattus norvegicus
# Assay: Open TG-GATES - Regimen: Single
# Type: toxicity, organism-based, Sprague-Dawley
# Parameters: regimen Single, gender Male, age 6 weeks
# Details: in vivo, po, 750 mg/kg, route gavage, dose level High; for APTT / Bas / Eos / Fbg / Hb / Ht / Lym / MCH / MCHC / MCV / Mono / Neu / PT / Plat / RBC / Ret / WBC: tissue Blood; for KIDNEY_L / KIDNEY_R / KIDNEY_TOTAL: tissue Kidney; for LIVER: tissue Liver; for A/G / ALP / ALT / AST / BUN / CRE / Ca / Cl / DBIL / GLC / IP / K / LDH / Na / PL / RALB / TBIL / TC / TG / TP / gamma-GTP: tissue Plasma
smiles,measurement,setting,value
CN(C/C=C/C#CC(C)(C)C)Cc1cccc2ccccc12 [TERBINAFINE],TERMINAL_BW,3 h,226.5 g
same,APTT,3 h,19.1 s
same,Bas,3 h,0.4%
same,Eos,3 h,0.8%
same,Fbg,3 h,220.4 mg/dL
same,Hb,3 h,12.9 g/dL
same,Ht,3 h,38.4%
same,Lym,3 h,76.8%
same,MCH,3 h,21.1 pg
same,MCHC,3 h,33.5%
same,MCV,3 h,63 fL
same,Mono,3 h,1.8%
same,Neu,3 h,19.8%
same,PT,3 h,12.3 s
same,Plat,3 h,120 x10_4/uL
same,RBC,3 h,610.2 x10_4/ul
same,Ret,3 h,7.2%
same,WBC,3 h,85.9 x10_2/uL
same,KIDNEY_L,3 h,1 g
same,KIDNEY_R,3 h,1 g
same,KIDNEY_TOTAL,3 h,2 g
same,LIVER,3 h,9.8 g
same,A/G,3 h,1.7
same,ALP,3 h,978.4 IU/L
same,ALT,3 h,35.6 IU/L
same,AST,3 h,69.2 IU/L
same,BUN,3 h,9.8 mg/dL
same,CRE,3 h,0.4 mg/dL
same,Ca,3 h,10.6 mg/dL
same,Cl,3 h,103 meq/L
same,DBIL,3 h,0.08 mg/dL
same,GLC,3 h,204.6 mg/dL
same,IP,3 h,9.1 mg/dL
same,K,3 h,3.7 meq/L
same,LDH,3 h,180.8 IU/L
same,Na,3 h,141.6 meq/L
same,PL,3 h,128.6 mg/dL
same,RALB,3 h,3.4 g/dL
same,TBIL,3 h,0.1 mg/dL
same,TC,3 h,76.4 mg/dL
same,TG,3 h,36 mg/dL
same,TP,3 h,5.5 g/dL
same,gamma-GTP,3 h,1 IU/L
same,TERMINAL_BW,6 h,226.5 g
same,APTT,6 h,18 s
same,Bas,6 h,0.6%
same,Eos,6 h,0.8%
same,Fbg,6 h,217.6 mg/dL
same,Hb,6 h,12.8 g/dL
same,Ht,6 h,37.9%
same,Lym,6 h,77.6%
same,MCH,6 h,21.6 pg
same,MCHC,6 h,33.8%
same,MCV,6 h,63.8 fL
same,Mono,6 h,3%
same,Neu,6 h,18%
same,PT,6 h,12.2 s
same,Plat,6 h,124.3 x10_4/uL
same,RBC,6 h,595 x10_4/ul
same,Ret,6 h,7.2%
same,WBC,6 h,79 x10_2/uL
same,KIDNEY_L,6 h,1 g
same,KIDNEY_R,6 h,1 g
same,KIDNEY_TOTAL,6 h,2 g
same,LIVER,6 h,9.7 g
same,A/G,6 h,1.7
same,ALP,6 h,823.4 IU/L
same,ALT,6 h,35.4 IU/L
same,AST,6 h,70 IU/L
same,BUN,6 h,12.4 mg/dL
same,CRE,6 h,0.4 mg/dL
same,Ca,6 h,10.5 mg/dL
same,Cl,6 h,103.2 meq/L
same,DBIL,6 h,0.082 mg/dL
same,GLC,6 h,206.2 mg/dL
same,IP,6 h,9.6 mg/dL
same,K,6 h,3.9 meq/L
same,LDH,6 h,174.2 IU/L
same,Na,6 h,141 meq/L
same,PL,6 h,121.2 mg/dL
same,RALB,6 h,3.5 g/dL
same,TBIL,6 h,0.1 mg/dL
same,TC,6 h,68.2 mg/dL
same,TG,6 h,36.6 mg/dL
same,TP,6 h,5.5 g/dL
same,gamma-GTP,6 h,0.8 IU/L
same,TERMINAL_BW,9 h,225.4 g
same,APTT,9 h,18.8 s
same,Bas,9 h,0.6%
same,Eos,9 h,1%
same,Fbg,9 h,221.6 mg/dL
same,Hb,9 h,12.8 g/dL
same,Ht,9 h,38.2%
same,Lym,9 h,73.2%
same,MCH,9 h,21.3 pg
same,MCHC,9 h,33.6%
same,MCV,9 h,63.6 fL
same,Mono,9 h,2.6%
same,Neu,9 h,22.6%
same,PT,9 h,12.3 s
same,Plat,9 h,114 x10_4/uL
same,RBC,9 h,601.8 x10_4/ul
same,Ret,9 h,6.8%
same,WBC,9 h,85 x10_2/uL
same,KIDNEY_L,9 h,1 g
same,KIDNEY_R,9 h,1 g
same,KIDNEY_TOTAL,9 h,2 g
same,LIVER,9 h,9.3 g
same,A/G,9 h,1.7
same,ALP,9 h,1027.6 IU/L
same,ALT,9 h,32.8 IU/L
same,AST,9 h,64.2 IU/L
same,BUN,9 h,12.2 mg/dL
same,CRE,9 h,0.4 mg/dL
same,Ca,9 h,10 mg/dL
same,Cl,9 h,103.6 meq/L
same,DBIL,9 h,0.07 mg/dL
same,GLC,9 h,205.6 mg/dL
same,IP,9 h,10.4 mg/dL
same,K,9 h,4 meq/L
same,LDH,9 h,163.2 IU/L
same,Na,9 h,141.2 meq/L
same,PL,9 h,112.8 mg/dL
same,RALB,9 h,3.4 g/dL
same,TBIL,9 h,0.1 mg/dL
same,TC,9 h,57.6 mg/dL
same,TG,9 h,24.4 mg/dL
same,TP,9 h,5.4 g/dL
same,gamma-GTP,9 h,1 IU/L
same,TERMINAL_BW,24 h,233.7 g
same,APTT,24 h,18.6 s
same,Bas,24 h,0.8%
same,Eos,24 h,1%
same,Fbg,24 h,216.6 mg/dL
same,Hb,24 h,13.1 g/dL
same,Ht,24 h,38.5%
same,Lym,24 h,78.8%
same,MCH,24 h,21.7 pg
same,MCHC,24 h,34%
same,MCV,24 h,64.1 fL
same,Mono,24 h,3.4%
same,Neu,24 h,15.6%
same,PT,24 h,12.3 s
same,Plat,24 h,122.8 x10_4/uL
same,RBC,24 h,601.6 x10_4/ul
same,Ret,24 h,6.4%
same,WBC,24 h,81.1 x10_2/uL
same,KIDNEY_L,24 h,1.1 g
same,KIDNEY_R,24 h,1.1 g
same,KIDNEY_TOTAL,24 h,2.2 g
same,LIVER,24 h,10.8 g
same,A/G,24 h,1.8
same,ALP,24 h,1101 IU/L
same,ALT,24 h,51.6 IU/L
same,AST,24 h,89.4 IU/L
same,BUN,24 h,13.2 mg/dL
same,CRE,24 h,0.4 mg/dL
same,Ca,24 h,10.3 mg/dL
same,Cl,24 h,103.6 meq/L
same,DBIL,24 h,0.076 mg/dL
same,GLC,24 h,203.4 mg/dL
same,IP,24 h,8.6 mg/dL
same,K,24 h,3.7 meq/L
same,LDH,24 h,203.6 IU/L
same,Na,24 h,141.6 meq/L
same,PL,24 h,106 mg/dL
same,RALB,24 h,3.6 g/dL
same,TBIL,24 h,0.1 mg/dL
same,TC,24 h,57.8 mg/dL
same,TG,24 h,29.2 mg/dL
same,TP,24 h,5.5 g/dL
same,gamma-GTP,24 h,1.8 IU/L
